From patent US9617246B2, “Thioether-piperidinyl orexin receptor antagonists” (MERCK SHARP & DOHME CORP., priority 2013, dated 2017) come the findings set out here.

The target of one assay is human orexin-2 receptor (Homo sapiens (Human), UniProt O43614). Kind of assay: FLIPR Ca2+ Flux Assay, orexin-2 receptor. The class given is cell-based. The following applies: CHO cells, agonist 70 pM Ala-6,12 human orexin-A; read-out: hOX2R FLIPR IC50. As for the experimental part: The utility of the compounds in accordance with the present invention as orexin receptor OX1R and/or OX2R antagonists may be readily determined without undue experimentation by methodology well known in the art, including the “FLIPR Ca^2+ Flux Assay” (Okumura et al., Biochem. Biophys. Res. Comm. 280:976-981, 2001). In a typical experiment the OX1 and OX2 receptor antagonistic activity of the compounds of the present invention was determined in accordance with the following experimental method. For intracellular calcium measurements, Chinese hamster ovary (CHO) cells expressing the rat orexin-1 receptor or the human orexin-2 receptor, are grown in Iscove's modified DMEM containing 2 mM L-glutamine, […], 1% hypoxanthine-thymidine supplement, 100 U/ml penicillin, 100 μg/ml streptomycin and 10% heat-inactivated fetal calf serum (FCS). The cells are seeded at 20,000 cells/well into Becton-Dickinson black 384-well clear bottom sterile plates coated with poly-D-lysine. All reagents were from GIBCO-Invitrogen Corp. The seeded plates are incubated overnight at 37° C. and 5% CO2. Ala-6,12 human orexin-A as the agonist is prepared as a 1 mM stock solution in 1% bovine serum albumin (BSA) and diluted in assay buffer (HBSS containing 20 mM HEPES, 0.1% BSA and 2.5 mM probenecid, pH7.4) for use in the assay at a final concentration of 70 pM. Test compounds are prepared as 10 mM stock solution in DMSO, then diluted in 384-well plates, first in DMSO, then assay buffer. On the day of the assay, cells are washed 3 times with 100 μl assay buffer and then incubated for 60 min (37° C., 5% CO2) in 60 μl assay buffer containing 1 μM Fluo-4AM ester, 0.02% pluronic acid, and 1% BSA. The dye loading solution is then aspirated and cells are washed 3 times with 100 μl assay buffer. 30 μl of that same buffer is left in each well. Within the Fluorescent Imaging Plate Reader (FLIPR, Molecular Devices), test compounds are added to the plate in a volume of 25 μl, incubated for 5 min and finally 25 μl of agonist is added. Fluorescence is measured for each well at 1 second intervals for 5 minutes and the height of each fluorescence peak is compared to the height of the fluorescence peak induced by 70 pM Ala-6,12 orexin-A with buffer in place of antagonist. For each antagonist, IC50 value (the concentration of compound needed to inhibit 50% of the agonist response) is determined. Alternatively, compound potency can be assessed by a radioligand binding assay (described in Bergman et. al. Bioorg. Med. Chem. Lett. 2008, 18, 1425-1430) in which the inhibition constant (Ki) is determined in membranes prepared from CHO cells expressing either the OX1 or OX2 receptor. The intrinsic orexin receptor antagonist activity of a compound which may be used in the present invention may be determined by these assays.
human orexin-2 receptor, sequence (O43614 whole entry): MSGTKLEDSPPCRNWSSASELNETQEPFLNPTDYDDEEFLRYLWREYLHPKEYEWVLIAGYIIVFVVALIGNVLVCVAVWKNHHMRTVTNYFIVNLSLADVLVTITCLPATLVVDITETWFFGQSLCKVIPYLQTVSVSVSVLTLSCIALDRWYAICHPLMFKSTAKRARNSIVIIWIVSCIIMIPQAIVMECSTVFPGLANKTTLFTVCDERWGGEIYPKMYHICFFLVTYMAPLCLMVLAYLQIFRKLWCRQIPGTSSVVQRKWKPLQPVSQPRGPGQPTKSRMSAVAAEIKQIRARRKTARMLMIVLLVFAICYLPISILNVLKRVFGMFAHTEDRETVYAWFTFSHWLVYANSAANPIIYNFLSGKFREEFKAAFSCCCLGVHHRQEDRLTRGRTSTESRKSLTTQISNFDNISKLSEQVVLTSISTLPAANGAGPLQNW

In another assay the target is hOX1R (Homo sapiens, UniProt O43613). Kind of assay: FLIPR Ca2+ Flux Assay, orexin-1 receptor. The class given is cell-based. The settings on record: CHO cells, agonist 70 pM Ala-6,12 human orexin-A. Background: Calcium assays in cells follow changes in intracellular calcium, usually with a dye or a luminescent sensor.

Structures are written as SMILES.

The term IC50 denotes the concentration at which inhibition is half-maximal. With `COc1cccc(-n2nccn2)c1C(=O)N1C[C@H](Sc2cc(C#N)ccn2)CC[C@H]1C` [Example 17, 2-{[(3R,6R)-1-{[2-methoxy-6-(2H-1,2,3-triazol-2-yl)phenyl]carbonyl}-6-methylpiperidin-3-yl]sulfanyl}pyridine-4-carbonitrile], the IC50 at human orexin-2 receptor was 51.2 nM; on hOX1R, 5880 nM.

Turning to `COc1ccc(C(=O)N2C[C@H](Sc3cc(C#N)ccn3)CC[C@H]2C)c(-n2nccn2)n1` [Example 14, 2-{[(3R,6R)-1-{[6-Methoxy-2-(2H-1,2,3-triazol-2-yl)pyridin-3-yl]carbonyl}-6-methylpiperidin-3-yl]sulfanyl}pyridine-4-carbonitrile], the figures for the half-maximal inhibitory concentration (IC50) at human orexin-2 receptor and on hOX1R were 149 nM and 10000 nM, respectively.

Take `COc1ccc(C(=O)N2C[C@H](Sc3cc(C#N)ccn3)CC[C@H]2C)c(-n2nccn2)c1` [Example 23, 2-{[(3R,6R)-1-{[4-methoxy-2-(2H-1,2,3-triazol-2-yl)phenyl]carbonyl}-6-methylpiperidin-3-yl]sulfanyl}pyridine-4-carbonitrile]: the IC50 on human orexin-2 receptor worked out at 224 nM; on hOX1R, 7820 nM.

As for `C[C@@H]1CC[C@@H](Sc2cc(C#N)ccn2)CN1C(=O)c1sccc1-c1ncccn1` [Example 42, 2-({(3R,6R)-6-methyl-1-[(3-pyrimidin-2-ylthiophen-2-yl)carbonyl]piperidin-3-yl}sulfanyl)pyridine-4-carbonitrile], the results for the IC50 at human orexin-2 receptor and at hOX1R were 5.3 nM and 3560 nM, respectively.

`C[C@@H]1CC[C@@H](Sc2cc(C#N)ccn2)CN1C(=O)c1ccccc1N1CCCC1` [Example 39, 2-({(3R,6R)-6-methyl-1-[(2-pyrrolidin-1-ylphenyl)carbonyl]piperidin-3-yl}sulfanyl)pyridine-4-carbonitrile]: the IC50 on human orexin-2 receptor was 103 nM; at hOX1R, 10000 nM.

With `C[C@@H]1CC[C@@H](Sc2cc(C#N)ccn2)CN1C(=O)c1ccccc1C1CC1` [Example 30, 2-({(3R,6R)-1-[(2-cyclopropylphenyl)carbonyl]-6-methylpiperidin-3-yl}sulfanyl)pyridine-4-carbonitrile], the values for the IC50 at human orexin-2 receptor and on hOX1R were 18.3 nM and 4070 nM, respectively.

With `C[C@@H]1CC[C@@H](Sc2cc(C#N)ccn2)CN1C(=O)c1ccccc1-c1cnn(C)c1` [Example 31, 2-{[(3R,6R)-6-methyl-1-{[2-(1-methyl-1H-pyrazol-4-yl)phenyl]carbonyl}piperidin-3-yl]sulfanyl}pyridine-4-carbonitrile], the half-maximal inhibitory concentration (IC50) was 30.3 nM on human orexin-2 receptor and 3190 nM on hOX1R.

In the case of `Cc1cc(C#N)cc(S[C@@H]2CC[C@@H](C)N(C(=O)c3ccccc3-n3nccn3)C2)n1` [Example 2, 2-methyl-6-{[(3R,6R)-6-methyl-1-{[2-(2H-1,2,3-triazol-2-yl)phenyl]carbonyl}piperidin-3-yl]sulfanyl}pyridine-4-carbonitrile], the IC50 on human orexin-2 receptor was 82.9 nM; on hOX1R, 1540 nM.

Turning to `C[C@@H]1CC[C@@H](Sc2cc(C#N)ccn2)CN1C(=O)c1cccnc1-c1ccccc1` [Example 32, 2-({(3R,6R)-6-methyl-1-[(2-phenylpyridin-3-yl)carbonyl]piperidin-3-yl}sulfanyl)pyridine-4-carbonitrile], the IC50 on human orexin-2 receptor was 71.9 nM; at hOX1R, 10000 nM.

For `COc1ccc(C(=O)N2C[C@H](Sc3cc(C#N)ccn3)CC[C@H]2C)c(-c2ncccn2)n1` [Example 43, 2-({(3R,6R)-1-[(6-methoxy-2-pyrimidin-2-ylpyridin-3-yl)carbonyl]-6-methylpiperidin-3-yl}sulfanyl)pyridine-4-carbonitrile], the IC50 turned out to be 864 nM on human orexin-2 receptor and 10000 nM at hOX1R.

Turning to `C[C@@H]1CC[C@@H](Sc2ccc(C(F)(F)F)cn2)CN1C(=O)c1ccccc1-n1nccn1` [Example 8, 2-{[(3R,6R)-6-methyl-1-{[2-(2H-1,2,3-triazol-2-yl)phenyl]carbonyl}piperidin-3-yl]sulfanyl}-5-(trifluoromethyl)pyridine], the IC50 is 322 nM on human orexin-2 receptor and 596 nM on hOX1R.

On to `C[C@@H]1CC[C@@H](Sc2cc(C#N)ccn2)CN1C(=O)c1ccc(Cl)cc1-n1nccn1` [Example 20, 2-{[(3R,6R)-1-{[4-chloro-2-(2H-1,2,3-triazol-2-yl)phenyl]carbonyl}-6-methylpiperidin-3-yl]sulfanyl}pyridine-4-carbonitrile], for which the IC50 at human orexin-2 receptor was determined as 15.5 nM; on hOX1R, 1030 nM.

In the case of `COC(=O)c1c(C)ccnc1S[C@@H]1CC[C@@H](C)N(C(=O)c2ccccc2-n2nccn2)C1` [Example 1, Methyl 4-methyl-2-{[(3R,6R)-6-methyl-1-{[2-(2H-1,2,3-triazol-2-yl)phenyl]carbonyl}-piperidin-3-yl]sulfanyl}pyridine-3-carboxylate], the IC50 worked out at 22.2 nM on human orexin-2 receptor and 27.8 nM on hOX1R.

Regarding `C[C@@H]1CC[C@@H](Sc2cc(C#N)ccn2)CN1C(=O)c1ccc(F)cc1-n1nccn1` [Example 21, 2-{[(3R,6R)-1-{[4-fluoro-2-(2H-1,2,3-triazol-2-yl)phenyl]carbonyl}-6-methylpiperidin-3-yl]sulfanyl}pyridine-4-carbonitrile], the IC50 was 26.1 nM at human orexin-2 receptor and 2720 nM at hOX1R.

As to `C[C@@H]1CC[C@@H](Sc2cc(C#N)ccn2)CN1C(=O)c1ccsc1-n1nccn1` [Example 44, 2-{[(3R,6R)-6-Methyl-1-{[2-(2H-1,2,3-triazol-2-yl)thiophen-3-yl]carbonyl}piperidin-3-yl]sulfanyl}pyridine-4-carbonitrile], the IC50 came to 18.8 nM at human orexin-2 receptor and 3920 nM at hOX1R.
